This test relates to K98450-129-R-PDC multicell spheroids, viability. As to the kind of experiment: Anticancer human tumor K98450-129-R-PDC patient-derived colon adenocarcinoma cell line growth inhibition [PI3K]. The note with it: for viability, T/C: stronger effect = lower value. The text has this: Combinatorial screen of targeted agents with the PI3K inhibitors inavolisib, alpelisib, duvelisib, and copanlisib in multi-cell type tumor spheroids
A high-throughput screen of multi-cell type tumor spheroids was designed to identify active combinations of targeted small molecules and PI3K pathway inhibitors. Complex spheroids include a stromal component modeled by human endothelial cells (HUVEC) and fibroblasts modeled by human mesenchymal stem cells (MSCs). The concentration ranges selected for each drug and investigational agent were based upon clinically achievable concentrations if the clinical Cmax of the agent was known.
Compounds. The drugs and investigational agents: inavolisib (NSC800729), alpelisib (NSC765974), duvelisib (NSC772469), copanlisib (NSC816437), ipatasertib (NSC767898), afuresertib (NSC778305), talazoparib (NSC767125), sapanisertib (NSC764658), selumetinib (NSC741078), tovorafenib (DAY101, NSC766906), vemurafenib (NSC761431), ravoxertinib (NSC781343), sotorasib (NSC818433), MRTX1133 (NSC 836407), abemaciclib (NSC 768073), palbociclib (NSC758247), venetoclax (NSC 766270), SY5609 (NSC837396), enzalutamide (NSC755605), and darolutamide (NSC825331), were obtained from the National Cancer Institute (NCI) Developmental Therapeutics Program Chemical Repository. The FDA-approved anticancer drug set is available from the NCI Developmental Therapeutics Program. […] The stock solutions were prepared in dimethyl sulfoxide (DMSO, Sigma-Aldrich, St. Louis, MO, cat. D2650) at 800-fold the tested concentration and stored at -70 degrees C prior to their use. All drugs and investigational agents were tested over a range starting from a high concentration at or near the clinical Cmax and decreasing in half-log increments. If the clinical Cmax for an agent had not been determined, the highest concentration tested was 10 microM.
Cell Culture. All cells were maintained in an incubator at 37 degrees C and 5% CO2 with 95% humidity. The PDC lines were cultured according to standard operating procedures established by the NCI PDMR (https://pdmr.cancer.gov/sops/default.htm). All PDCs were thawed and cultured in Matrigel-coated flasks prepared with a working solution of 1X Ham's F-12 nutrient mix, without supplementation (Invitrogen, Waltham, MA, cat. 11765054), 100 U/mL penicillin-streptomycin (Invitrogen, cat. 15140122), and 2.5% Matrigel (Corning Inc., Corning, NY, cat. 354248) for the first three passages. The 354836-022-R-J1-PDC, 475296-252-R-J1-PDC, and 997726-040-R-J2-PDC lines were cultured in 6A media, which includes advanced DMEM/F-12 (Thermo Fisher Scientific, cat. 12634028), 10 mM HEPES (Thermo Fisher Scientific, cat. 15630080), 1X GlutaMAX supplement (Thermo Fisher Scientific, cat. 35050061), 0.1 mg/mL primocin (InvivoGen, San Diego, CA, cat. ant-pm-2), 10% defined fetal bovine serum, heat inactivated (HyClone Laboratories Inc., Logan, UT, cat. SH30070.03HI), 50% L-WRN conditioned media (ATCC, cat. CRL-3276), 1.25 mM N-Acetyl-L-cysteine (Sigma-Aldrich, cat. A9165), 10 mM nicotinamide (Sigma-Aldrich, cat. N0636), 1X B-27 supplement (Thermo Fisher Scientific, cat. 17504044), 1X N-2 supplement (Thermo Fisher Scientific, cat. 17502048), and 10 microM Y-27632 dihydrochloride (Tocris Bioscience, Bristol, United Kingdom, cat. 1254). The 624824-186-R-J2-PDC line was cultured in 6C/Colon 1B media, which includes all 6A media components plus 50 ng/mL human EGF recombinant protein (Thermo Fisher Scientific, cat. PHG0311). […]

The values below come from PubChem BioAssay AID1963961 (Molecular Pharmacology Branch, DTP, NCI, 2024).

pIC50: −log10 of the molar value. “And” between values parts separate entries of the source, which are not always exact repeats. Equal entries are not always repeated. Bounds are passed on as bounds.
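Further: spheroids exposed to agents for seven days before read-out.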

As to `C#Cc1c(F)ccc2cc(O)cc(-c3ncc4c(N5CC6CCC(C5)N6)nc(OCC56CCCN5CC(F)C6)nc4c3F)c12` (stereo not drawn), the viability, T/C is, setting by setting: (compound 0.0316 µM) 109% [middle of 4 runs]; (compound 0.1 µM) 106% [middle of 4 runs]; (compound 0.316 µM) 104% (2×) and 101% and 102%; (compound 1 µM) 105% [middle of 4 runs]; (compound 3.16 µM) 99.8% and 91.5% (2×) and 108%; (compound 10 µM) 89.9% [middle of 4 runs]. Besides, the pIC50 (curve of compound) is less than 5.00.

In the case of `C=CC(=O)N1CCN(c2nc(=O)n(-c3c(C)ccnc3C(C)C)c3nc(-c4c(O)cccc4F)c(F)cc23)C(C)C1` (stereo not drawn), the viability, T/C reads like this: (compound 0.0316 µM) 104% [middle of 4 runs]; (compound 0.1 µM) 98.4% [middle of 4 runs]; (compound 0.316 µM) 102% [middle of 4 runs]; (compound 3.16 µM) 56% [middle of 4 runs].

Regarding `CC1(C)CCC(Nc2ncc(C(F)(F)F)c(-c3c[nH]c4c(P(C)(C)=O)c(C#N)ccc34)n2)CN1` (stereo not drawn), the viability, T/C runs as follows: (compound 0.0316 µM) 107% and 114% (2×) and 124%; (compound 0.1 µM) 99% [middle of 4 runs]; (compound 0.316 µM) 88.8% [middle of 4 runs]; (compound 1 µM) 70.6% [middle of 4 runs]; (compound 3.16 µM) 66.8% [middle of 4 runs]; (compound 10 µM) 63.4% [middle of 4 runs]. Also, the pIC50 (curve of compound) is 5.06 and < 5.00 and 5.04.

`Cn1ncc(Cl)c1-c1cc(C(=O)NC(CN)Cc2cccc(F)c2)sc1Cl` (stereo not drawn): the viability, T/C was 108% [middle of 4 runs] (compound 0.0316 µM); 98.9% and 101% (2×) and 95.5% (compound 0.1 µM); 107% [middle of 4 runs] (compound 0.316 µM); 98.2% [middle of 4 runs] (compound 1 µM); 92.7% [middle of 4 runs] (compound 3.16 µM). Also, the pIC50 (curve of compound) is less than 5.00.

On to `Cn1nccc1Nc1nccc(-c2ccn(C(CO)c3ccc(Cl)c(F)c3)c(=O)c2)n1` (stereo not drawn), for which the viability, T/C (compound 0.0316 µM) was 105% (2×) and 95% and 106%; the viability, T/C (compound 0.1 µM) was 101% (2×) and 104% and 81.8%; the viability, T/C (compound 0.316 µM) was 103% [middle of 4 runs]; the viability, T/C (compound 1 µM) was 101% [middle of 4 runs]; the viability, T/C (compound 3.16 µM) was 100% [middle of 4 runs]; the viability, T/C (compound 10 µM) is 94% [middle of 4 runs]. For the same molecule, the pIC50 (curve of compound) was less than 5.00.

Take `Cn1cnc2c(F)c(Nc3ccc(Br)cc3Cl)c(C(=O)NOCCO)cc21` + CC(Nc1ccc2c(c1)OCCn1cc(N3C(=O)OCC3C(F)F)nc1-2)C(N)=O: the pIC50 is 5.88 (curve of first compound, second compound 0.00316 µM); 5.94 (curve of first compound, second compound 0.01 µM); 5.92 (curve of first compound, second compound 0.0316 µM); 5.91 (curve of first compound, second compound 0.1 µM); 6.07 (curve of first compound, second compound 0.316 µM); 6.22 (curve of first compound, second compound 1 µM). The viability, T/C is, setting by setting: (second compound 0.00316 µM, first compound 0.00949 µM) 105%; (second compound 0.00316 µM, first compound 0.03 µM) 86.9%; (second compound 0.00316 µM, first compound 0.0949 µM) 95.5%; (second compound 0.00316 µM, first compound 0.3 µM) 76.1%; (second compound 0.00316 µM, first compound 0.949 µM) 62.1%; (second compound 0.00316 µM, first compound 3 µM) 25.7%. Besides, the viability, T/C by setting is: (second compound 0.01 µM, first compound 0.00949 µM) 102%; (second compound 0.01 µM, first compound 0.03 µM) 88.7%; (second compound 0.01 µM, first compound 0.0949 µM) 91%; (second compound 0.01 µM, first compound 0.3 µM) 75.4%; (second compound 0.01 µM, first compound 0.949 µM) 56.3%; (second compound 0.01 µM, first compound 3 µM) 21.9%. Moreover, the viability, T/C (second compound 0.0316 µM, first compound 0.00949 µM) was 99.3%; the viability, T/C (second compound 0.0316 µM, first compound 0.03 µM) is 93.4%; the viability, T/C (second compound 0.0316 µM, first compound 0.0949 µM) was 83%; the viability, T/C (second compound 0.0316 µM, first compound 0.3 µM) was 75.3%; the viability, T/C (second compound 0.0316 µM, first compound 0.949 µM) was 62.1%; the viability, T/C (second compound 0.0316 µM, first compound 3 µM) is 17.7%. Moreover, the viability, T/C is 89.5% (second compound 0.1 µM, first compound 0.00949 µM); 81.8% (second compound 0.1 µM, first compound 0.03 µM); 85.6% (second compound 0.1 µM, first compound 0.0949 µM); 76.5% (second compound 0.1 µM, first compound 0.3 µM); 60.5% (second compound 0.1 µM, first compound 0.949 µM); 16.7% (second compound 0.1 µM, first compound 3 µM). In addition, the viability, T/C reads like this: (second compound 0.316 µM, first compound 0.00949 µM) 83.7%; (second compound 0.316 µM, first compound 0.03 µM) 83.5%; (second compound 0.316 µM, first compound 0.0949 µM) 82.5%; (second compound 0.316 µM, first compound 0.3 µM) 72.2%; (second compound 0.316 µM, first compound 0.949 µM) 48%; (second compound 0.316 µM, first compound 3 µM) 11.1%. Also, the viability, T/C is 76.6% (second compound 1 µM, first compound 0.00949 µM); 77.5% (second compound 1 µM, first compound 0.03 µM); 78.2% (second compound 1 µM, first compound 0.0949 µM); 66.8% (second compound 1 µM, first compound 0.3 µM); 38.9% (second compound 1 µM, first compound 0.949 µM); 9.63% (second compound 1 µM, first compound 3 µM).

Broadly, the viability, T/C is the result in the treated group divided by that in the control group, in per cent. By pIC50 is commonly meant the IC50 on a negative log10 scale, so that one unit is a factor of ten.
